Measured values reported in patent US9598423B2 (BRISTOL-MYERS SQUIBB COMPANY, priority 2013, dated 2017).

Assays:
CK1ε = CK1ε (Homo sapiens (Human), UniProt P49674); assay: CK1ε kinase assay (Caliper LABCHIP electrophoretic separation of fluoresceinated peptide substrate and product); assay type: biochemical; conditions: 200 pM CK1ε, 50 μM ATP, 1.5 μM peptide substrate, 22 hours at room temperature; read-out: CK1ε (IC50)
In short: (§1)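 IC50 values were obtained by non-linear regression from eleven-concentration titrations. The kinase reactions were incubated for 22 hours at room temperature before termination with 35 mM EDTA.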

CK1δ = CK1δ (Homo sapiens (Human), UniProt P48730); assay: CK1δ kinase assay (Caliper LABCHIP electrophoretic separation of fluoresceinated peptide substrate and product); assay type: biochemical; conditions: 200 pM CK1δ, 50 μM ATP, 1.5 μM peptide substrate, 22 hours at room temperature; read-out: CK1δ (IC50)
In short: as §1

Chain of CK1ε (P49674 whole entry): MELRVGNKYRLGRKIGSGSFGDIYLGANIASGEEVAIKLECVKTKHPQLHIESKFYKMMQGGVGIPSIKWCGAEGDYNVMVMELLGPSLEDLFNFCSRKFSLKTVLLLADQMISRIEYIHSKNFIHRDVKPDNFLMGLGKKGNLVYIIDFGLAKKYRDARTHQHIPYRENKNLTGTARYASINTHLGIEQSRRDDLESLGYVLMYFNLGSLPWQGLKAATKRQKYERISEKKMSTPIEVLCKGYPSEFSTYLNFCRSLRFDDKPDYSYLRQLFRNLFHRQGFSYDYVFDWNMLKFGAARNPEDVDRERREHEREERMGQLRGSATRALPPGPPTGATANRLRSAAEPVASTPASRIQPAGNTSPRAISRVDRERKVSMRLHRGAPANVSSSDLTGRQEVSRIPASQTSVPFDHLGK
Chain of CK1δ (P48730 whole entry): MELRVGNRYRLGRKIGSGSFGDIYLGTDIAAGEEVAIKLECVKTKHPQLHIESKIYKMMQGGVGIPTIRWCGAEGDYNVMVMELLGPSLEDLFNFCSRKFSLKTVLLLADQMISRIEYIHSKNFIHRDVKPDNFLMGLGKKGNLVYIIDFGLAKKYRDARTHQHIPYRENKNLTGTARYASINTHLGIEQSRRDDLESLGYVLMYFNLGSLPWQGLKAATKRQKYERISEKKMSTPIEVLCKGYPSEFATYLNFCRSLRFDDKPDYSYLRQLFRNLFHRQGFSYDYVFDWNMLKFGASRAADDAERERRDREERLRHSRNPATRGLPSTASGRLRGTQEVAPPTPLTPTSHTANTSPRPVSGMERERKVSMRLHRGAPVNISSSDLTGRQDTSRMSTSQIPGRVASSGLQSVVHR

| SMILES | IC50 (CK1ε) | IC50 (CK1δ) |
| --- | --- | --- |
| CS(=O)(=O)c1ccc(-c2nn3c(c2C(N)=O)CN(C(=O)Nc2ccc(C#N)cc2)CC3)cc1 [Compound 290, N^5-(4-Cyanophenyl)-2-(4-(methylsulfonyl)phenyl)-6,7-dihydropyrazolo[1,5-a] pyrazine-3,5(4H)-dicarboxamide] | 100 to 2000 nM | 100 to 2000 nM |
| CC1CN(C(=O)Nc2ccc(C#N)cc2)Cc2c(C(N)=O)c(-c3cccc(F)c3)nn21 (single isomer, unassigned) [Compound A79, N^5-(4-Cyanophenyl)-2-(3-fluorophenyl)-7-methyl-6,7-dihydropyrazolo[1,5-a]pyrazine-3,5(4H)-dicarboxamide] | 100 to 2000 nM | 100 to 2000 nM |
| N#Cc1ccc(NC(=O)N2Cc3c(C(N)=O)c(-c4ccc(F)c(Cl)c4)nn3C(C(=O)NC3CCOCC3)C2)cc1 (single isomer, unassigned) [Compound A28, 2-(3-Chloro-4-fluorophenyl)-N^5-(4-cyanophenyl)-N^7-(tetrahydro-2H-pyran-4-yl)-6,7-dihydropyrazolo[1,5-a]pyrazine-3,5,7(4H)-tricarboxamide] | 10 to 100 nM | 10 to 100 nM |
| Cc1cc(NC(=O)N2CCn3nc(-c4ccc(Cl)c(Cl)c4)c(C(N)=O)c3C2)ccc1C#N [Compound 214, N^5-(4-Cyano-3-methylphenyl)-2-(3,4-dichlorophenyl)-6,7-dihydropyrazolo[1,5-a] pyrazine-3,5(4H)-dicarboxamide] | 0.01 to 10 nM | 0.01 to 10 nM |
| NC(=O)c1c(-c2ccc(F)c(F)c2)nn2c1CN(C(=O)Nc1ccc3c(c1)CS(=O)(=O)C3)CC2 [Compound 234, 2-(3,4-Difluorophenyl)-N^5-(2,2-dioxido-1,3-dihydrobenzo[c]thiophen-5-yl)-6,7-dihydropyrazolo [1,5-a]pyrazine-3,5(4H)-dicarboxamide] | 0.01 to 10 nM | 0.01 to 10 nM |
| N#Cc1ccc(NC(=O)N2Cc3c(C(N)=O)c(-c4ccc(F)c(Cl)c4)nn3[C@H](C(F)F)C2)cc1F [Compound A22, (S)-2-(3-Chloro-4-fluorophenyl)-N^5-(4-cyano-3-fluorophenyl)-7-(difluoromethyl)-6,7-dihydropyrazolo[1,5-a]pyrazine-3,5(4H)-dicarboxamide] | 0.01 to 10 nM | 0.01 to 10 nM |
| N#Cc1cccc(NC(=O)N2CCn3nc(-c4ccc(F)c(Cl)c4)c(C(N)=O)c3C2)c1 [Compound 200, 2-(3-Chloro-4-fluorophenyl)-N^5-(3-cyanophenyl)-6,7-dihydropyrazolo[1,5-a] pyrazine-3,5(4H)-dicarboxamide] | 0.01 to 10 nM | 0.01 to 10 nM |
| N#Cc1ccc(NC(=O)N2CCn3nc(-c4ccc(F)c(Cl)c4)c(C(N)=O)c3C2)nc1 [Compound 193, 2-(3-Chloro-4-fluorophenyl)-N^5-(5-cyanopyridin-2-yl)-6,7-dihydropyrazolo[1,5-a] pyrazine-3,5(4H)-dicarboxamide] | 0.01 to 10 nM | 0.01 to 10 nM |
| N#Cc1ccc(NC(=O)N2CCn3nc(-c4ccc(F)c(F)c4)c(C(N)=O)c3C2)cc1F [Compound 236, N^5-(4-Cyano-3-fluorophenyl)-2-(3,4-difluorophenyl)-6,7-dihydropyrazolo[1,5-a] pyrazine-3,5(4H)-dicarboxamide] | 0.01 to 10 nM | 0.01 to 10 nM |
| NC(=O)c1c(-c2ccc(F)c(F)c2)nn2c1CN(C(=O)Nc1ccc3c(c1)OC(F)(F)O3)CC2 [Compound 232, N^5-(2,2-Difluorobenzo [d][1,3]dioxol-5-yl)-2-(3,4-difluorophenyl)-6,7-dihydropyrazolo [1,5-a]pyrazine-3,5(4H)-dicarboxamide] | 0.01 to 10 nM | 0.01 to 10 nM |
| Cc1cc(NC(=O)N2CCn3nc(-c4cc(Cl)c5[nH]ncc5c4)c(C(N)=O)c3C2)ccc1C#N [Compound 317, 2-(7-Chloro-1H-indazol-5-yl)-N^5-(4-cyano-3-methylphenyl)-6,7-dihydropyrazolo[1,5-a]pyrazine-3,5(4H)-dicarboxamide] | 0.01 to 10 nM | 0.01 to 10 nM |
| N#Cc1ccc(NC(=O)N2CCn3nc(-c4cc(F)cc(Cl)c4)c(C(N)=O)c3C2)cc1F [Compound 215, 2-(3-Chloro-5-fluorophenyl)-N^5-(4-cyano-3-fluorophenyl)-6,7-dihydropyrazolo[1,5-a]pyrazine-3,5(4H)-dicarboxamide] | 0.01 to 10 nM | 0.01 to 10 nM |
| Cc1cc(C)cc(-c2nn3c(c2C(N)=O)CN(C(=O)Nc2ccc(C#N)cc2)CC3)c1 [Compound 275, N^5-(4-Cyanophenyl)-2-(3,5-dimethylphenyl)-6,7-dihydropyrazolo[1,5-a] pyrazine-3,5(4H)-dicarboxamide] | 0.01 to 10 nM | 0.01 to 10 nM |

Other lines, results leading:

| IC50 (CK1ε) | IC50 (CK1δ) | SMILES |
| --- | --- | --- |
| 0.01 to 10 nM | 0.01 to 10 nM | Cc1cc(-c2nn3c(c2C(N)=O)CN(C(=O)Nc2ccc(C#N)cc2)CC3)ccc1F [Compound 248, N^5-(4-Cyanophenyl)-2-(4-fluoro-3-methylphenyl)-6,7-dihydropyrazolo[1,5-a]pyrazine-3,5(4H)-dicarboxamide] |
| 0.01 to 10 nM | 10 to 100 nM | N#Cc1ccc(NC(=O)N2CCn3nc(-c4cccc(Cl)c4Cl)c(C(N)=O)c3C2)cc1 [Compound 287, N^5-(4-Cyanophenyl)-2-(2,3-dichlorophenyl)-6,7-dihydropyrazolo[1,5-a] pyrazine-3,5(4H)-dicarboxamide] |
| 0.01 to 10 nM | 0.01 to 10 nM | NC(=O)c1c(-c2ccc(F)c(Cl)c2)nn2c1CN(C(=O)Nc1cccc(F)c1F)CC2 [Compound 191, 2-(3-Chloro-4-fluorophenyl)-N^5-(2,3-difluorophenyl)-6,7-dihydropyrazolo[1,5-a] pyrazine-3,5(4H)-dicarboxamide] |
| 0.01 to 10 nM | 0.01 to 10 nM | CS(=O)(=O)c1ccc(NC(=O)N2CCn3nc(-c4ccc(F)c(Cl)c4)c(C(N)=O)c3C2)nc1 [Compound 195, 2-(3-Chloro-4-fluorophenyl)-N^5-(5-(methylsulfonyl)pyridin-2-yl)-6,7-dihydropyrazolo[1,5-a] pyrazine-3,5(4H)-dicarboxamide] |
| 0.01 to 10 nM | 0.01 to 10 nM | NC(=O)c1c(-c2cccc(F)c2)nn2c1CN(C(=O)NC13CC4CC(O)(CC(F)(C4)C1)C3)CC2 (stereo not shown) [Compound 94, N^5-(3-Fluoro-5-hydroxyadamantan-1-yl)-2-(3-fluorophenyl)-6,7-dihydropyrazolo[1,5-a]pyrazine-3,5(4H)-dicarboxamide] |
| 0.01 to 10 nM | 0.01 to 10 nM | COc1cc(NC(=O)N2CCn3nc(-c4cccc(F)c4)c(C(N)=O)c3C2)ccc1C(F)(F)F [Compound 78, 2-(3-Fluorophenyl)-N^5-(3-methoxy-4-(trifluoromethyl)phenyl)-6,7-dihydropyrazolo[1,5-a]pyrazine-3,5(4H)-dicarboxamide] |
| 0.01 to 10 nM | 0.01 to 10 nM | NC(=O)c1c(-c2ccc(F)c(Cl)c2)nn2c1CN(C(=O)Nc1ccc(Cl)c(Cl)c1)CC2 [Compound 182, 2-(3-Chloro-4-fluorophenyl)-N^5-(3,4-dichlorophenyl)-6,7-dihydropyrazolo[1,5-a] pyrazine-3,5(4H)-dicarboxamide] |
| 0.01 to 10 nM | 0.01 to 10 nM | N#Cc1ccc(NC(=O)N2CCn3nc(-c4ccc(F)c(Cl)c4)c(C(N)=O)c3C2)cc1 [Compound 172] |
| 0.01 to 10 nM | 0.01 to 10 nM | Cc1cc(F)cc(-c2nn3c(c2C(N)=O)CN(C(=O)Nc2ccc4ncsc4c2)CC3)c1 [Compound 225, N^5-(Benzo[d]thiazol-6-yl)-2-(3-fluoro-5-methylphenyl)-6,7-dihydropyrazolo[1,5-a] pyrazine-3,5(4H)-dicarboxamide] |
| 0.01 to 10 nM | 0.01 to 10 nM | CC1Cn2nc(-c3cccc(Cl)c3)c(C(N)=O)c2CN1C(=O)Nc1ccc(C#N)cc1 (single isomer, unassigned) [Compound 332, 2-(3-Chlorophenyl)-N^5-(4-cyanophenyl)-6-methyl-6,7-dihydropyrazolo[1,5-a]pyrazine-3,5(4H)-dicarboxamide] |
| 0.01 to 10 nM | 0.01 to 10 nM | N#Cc1cccc(NC(=O)N2CCn3nc(-c4cccc(Cl)c4)c(C(N)=O)c3C2)c1 [Compound 161, 2-(3-Chlorophenyl)-N^5-(3-cyanophenyl)-6,7-dihydropyrazolo[1,5-a] pyrazine-3,5(4H)-dicarboxamide] |
| 0.01 to 10 nM | 0.01 to 10 nM | Cc1cc(NC(=O)N2Cc3c(C(N)=O)c(-c4ccc(F)c(Cl)c4)nn3CC23CC3)ccc1C#N [Compound 344, 2′-(3-Chloro-4-fluorophenyl)-N^5′-(4-cyano-3-methylphenyl)-4′H-spiro[cyclopropane-1,6′-pyrazolo[1,5-a]pyrazine]-3′,5′(7′H)-dicarboxamide] |
| 0.01 to 10 nM | 0.01 to 10 nM | NC(=O)c1c(-c2cccc(F)c2)nn2c1CN(C(=O)Nc1ccc(Cl)nc1)CC2 [Compound 85, N^5-(6-Chloropyridin-3-yl)-2-(3-fluorophenyl)-6,7-dihydropyrazolo[1,5-a]pyrazine-3,5(4H)-dicarboxamide] |
| 0.01 to 10 nM | 0.01 to 10 nM | Cc1ccc(-c2nn3c(c2C(N)=O)CN(C(=O)Nc2ccc(C#N)c(C)c2)CC3)cc1Cl [Compound 249, 2-(3-Chloro-4-methylphenyl)-N^5-(4-cyano-3-methylphenyl)-6,7-dihydropyrazolo[1,5-a]pyrazine-3,5(4H)-dicarboxamide] |
| 0.01 to 10 nM | 0.01 to 10 nM | COc1cc(NC(=O)N2CCn3nc(-c4cccc(Cl)c4)c(C(N)=O)c3C2)ccc1C#N [Compound A40, 2-(3-Chlorophenyl)-N^5-(4-cyano-3-methoxyphenyl)-6,7-dihydropyrazolo[1,5-a]pyrazine-3,5(4H)-dicarboxamide] |
| 0.01 to 10 nM | 0.01 to 10 nM | CC(C)(OC(=O)N1CCC(NC(=O)N2CCn3nc(-c4cccc(F)c4)c(C(N)=O)c3C2)CC1)C(F)(F)F [Compound 101, 1,1,1-Trifluoro-2-methylpropan-2-yl 4-(3-carbamoyl-2-(3-fluorophenyl)-4,5,6,7-tetrahydropyrazolo[1,5-a]pyrazine-5-carboxamido)piperidine-1-carboxylate] |
